# Assay results reported in patent US12371454B2, “Cyclic peptide compound having Kras inhibitory action” (priority 2019, dated 2025).
# Starred links: 1 amine or outer side, 2 acyl side, 3 side chain; linkers in the order of their positions; H or OH if unused. Positions of bridges follow the written chain, without caps; N, C: chain ends. Non-standard residues stand in square brackets, D forms with d. Residues, ends and D or L forms follow the SMILES beside them. *: point of attachment. hPhe(3-Cl-4-CF3) = N[C@@H](CCc1ccc(C(F)(F)F)c(Cl)c1)C(=O)O; NMePhe(4-CF3) = CN[C@@H](Cc1ccc(C(F)(F)F)cc1)C(=O)O; X23 = CN([C@@H](Cc1ccccc1OC(F)(F)F)C(=O)[*:2])[*:1]; 3Oxa8azabicyclo(3.2.1)octane = C1CC2COCC1N2*; NMedβ3hAla = C[C@H](CC(=O)[*:2])N(C)[*:1]; NMeAla(cPent) = CN[C@@H](CC1CCCC1)C(=O)O; NMeGly(cPent) = CN[C@H](C(=O)O)C1CCCC1; NMeGly(cBu) = CN[C@H](C(=O)O)C1CCC1; NMeCha = CN[C@@H](CC1CCCCC1)C(=O)O; NMeChg = CN[C@H](C(=O)O)C1CCCCC1; NMeD = CN[C@@H](CC(=O)O)C(=O)O; AllylGly = C=CC[C@H](N)C(=O)O; NMeL = CN[C@@H](CC(C)C)C(=O)O; Oxazolidin(3-yl) = C1CN(*)CO1; NMeV = CN[C@H](C(=O)O)C(C)C; NPhGly = O=C(O)CNc1ccccc1; NMeA = CN[C@@H](C)C(=O)O; NMeAib = CNC(C)(C)C(=O)O; Piperidide = C1CCN(*)CC1; Pyrrolidide = C1CCN(*)C1; Ac5c = NC1(C(=O)O)CCCC1; Aze = O=C(O)[C@@H]1CCN1; Sar = CNCC(=O)O
# Legend:
# [1] = tested on: Human pancreatic cancer cell line AsPC-1; assay: Measurement of AsPC-1 cell growth inhibition (AsPC-1 CGI); assay type: cell-based; conditions: 96 h
# In short: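 AsPC-1 cells in 15% FBS RPMI-1640 were exposed to test compound for 96 hours at 37° C, with CellTiter-Glo as endpoint.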
# [2] = target: T1, Kras and SOS1 (biotin-tagged human Kras loaded with GDP, His-tagged human SOS1) (Homo sapiens, UniProt P01116, G12D); assay: Protein-protein interaction inhibition between Kras and SOS1 (KrasGl2D-SOS PPI) using AlphaScreen; assay type: binding; conditions: AlphaScreen; biotin-tagged human Kras loaded with GDP, His-tagged human SOS1; read-out: KRAS G12D-SOS PPI IC50
# T1 construct: made in house; host or cells: E. coli (stated for Kras only)
# In short: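 AlphaScreen format: Ni donor beads capture His-SOS1, streptavidin acceptor beads capture biotinylated Kras (E. coli-expressed, GDP-loaded post-purification). Excite 680 nm, read 520-620 nm.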
# T1 sequence (P01116 1-188 isoform P01116-2 G12D): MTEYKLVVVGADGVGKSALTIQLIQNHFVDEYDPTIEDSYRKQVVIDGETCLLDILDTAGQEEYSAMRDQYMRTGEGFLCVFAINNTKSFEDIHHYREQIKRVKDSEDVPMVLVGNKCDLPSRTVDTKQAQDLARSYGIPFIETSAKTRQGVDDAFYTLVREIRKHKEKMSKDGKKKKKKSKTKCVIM
SMILES,IC50 [1],IC50 [2]
C=CC[C@@H]1NC(=O)[C@H](CC(C)C)N(C)C(=O)C[C@@H](C(=O)N2CCCCC2)N(C)C(=O)[C@H](C2CCCCC2)N(C)C(=O)C2(CCCC2)NC(=O)[C@@H]2CCCN2C(=O)[C@H](CCc2ccc(C(F)(F)F)c(Cl)c2)NC(=O)CN(C)C(=O)[C@H](CC2CCCCC2)N(C)C(=O)CN(C)C(=O)CN(C)C1=O [Compound 164] ([NMeL][AllylGly][Sar][Sar][NMeCha][Sar][hPhe(3-Cl-4-CF3)]P[Ac5c][NMeChg][NMeD]-Piperidide; lactam N-11),0.1 to 0.5 µM,0.0022 µM
CC[C@H](C)[C@@H]1NC(=O)[C@H](CC(C)C)N(C)C(=O)C[C@@H](C(=O)N2CCCCC2)N(C)C(=O)[C@H](CC2CCCC2)N(C)C(=O)C2(CCCC2)NC(=O)[C@@H]2CCCN2C(=O)[C@H](CCc2ccc(C(F)(F)F)c(Cl)c2)NC(=O)CN(C)C(=O)[C@H](CC2CCCCC2)N(C)C(=O)CN(C)C(=O)CN(C)C1=O [Compound 30] ([NMeL]I[Sar][Sar][NMeCha][Sar][hPhe(3-Cl-4-CF3)]P[Ac5c][NMeAla(cPent)][NMeD]-Piperidide; lactam N-11),0.1 to 0.5 µM,0.0046 µM
CC[C@H](C)[C@@H]1NC(=O)[C@H](CC(C)C)N(C)C(=O)C[C@@H](C)N(C)C(=O)[C@H](C(C)C)N(C)C(=O)C2(CCCC2)NC(=O)[C@@H]2CCCN2C(=O)[C@H](CCc2ccc(C(F)(F)F)c(Cl)c2)NC(=O)CN(C)C(=O)[C@H](Cc2ccccc2OC(F)(F)F)N(C)C(=O)CN(C)C(=O)CN(C)C1=O [Compound 1633] (cyclo([Ac5c][NMeV][NMedβ3hAla][NMeL]I[Sar][Sar][X23][Sar][hPhe(3-Cl-4-CF3)]P)),0.1 to 0.5 µM,0.05 µM
CC[C@H](C)[C@@H]1NC(=O)[C@H](CC(C)C)N(C)C(=O)C[C@@H](C(=O)N2CCCCC2)N(C)C(=O)[C@H](C(C)C)N(C)C(=O)C2(CCCC2)NC(=O)[C@@H]2CCCN2C(=O)[C@H](CCc2ccc(C(F)(F)F)c(Cl)c2)NC(=O)CN(C)C(=O)[C@H](CC2CCCC2)N(C)C(=O)CN(C)C(=O)CN(C)C1=O [Compound 220] ([NMeL]I[Sar][Sar][NMeAla(cPent)][Sar][hPhe(3-Cl-4-CF3)]P[Ac5c][NMeV][NMeD]-Piperidide; lactam N-11),0.1 to 0.5 µM,0.0031 µM
CC[C@H](C)[C@@H]1NC(=O)[C@H](C2CCC2)N(C)C(=O)C[C@@H](C(=O)N2CCCC2)N(C)C(=O)[C@H](C2CCCCC2)N(C)C(=O)C2(CCCC2)NC(=O)[C@@H]2CCCN2C(=O)[C@H](CCc2ccc(C(F)(F)F)c(Cl)c2)NC(=O)CN(C)C(=O)[C@H](Cc2ccc(C(F)(F)F)cc2)N(C)C(=O)CN(C)C(=O)CN(C)C1=O [Compound 73] ([NMeGly(cBu)]I[Sar][Sar][NMePhe(4-CF3)][Sar][hPhe(3-Cl-4-CF3)]P[Ac5c][NMeChg][NMeD]-Pyrrolidide; lactam N-11),0.02 to 0.05 µM,0.00033 µM
CC[C@H](C)[C@@H]1NC(=O)[C@H](C)N(C)C(=O)C[C@@H](C(=O)N2CCCCC2)N(C)C(=O)[C@H](C2CCC2)N(C)C(=O)C(C)(C)N(C)C(=O)CN(c2ccccc2)C(=O)[C@H](CCc2ccc(C(F)(F)F)c(Cl)c2)NC(=O)CN(C)C(=O)[C@H](C2CCC2)N(C)C(=O)[C@@H]2CCN2C(=O)[C@H](C)N(C)C1=O [Compound 2144] ([NMeA]I[NMeA][Aze][NMeGly(cBu)][Sar][hPhe(3-Cl-4-CF3)][NPhGly][NMeAib][NMeGly(cBu)][NMeD]-Piperidide; lactam N-11),> 0.5 µM,0.0069 µM
CC[C@H](C)[C@@H]1NC(=O)[C@H](CC(C)C)N(C)C(=O)C[C@@H](C(=O)N2C3CCC2COC3)N(C)C(=O)[C@H](C2CCCCC2)N(C)C(=O)C2(CCCC2)NC(=O)[C@@H]2CCCN2C(=O)[C@H](CCc2ccc(C(F)(F)F)c(Cl)c2)NC(=O)CN(C)C(=O)[C@H](Cc2ccc(C(F)(F)F)cc2)N(C)C(=O)CN(C)C(=O)CN(C)C1=O [Compound 1932] ([NMeL]I[Sar][Sar][NMePhe(4-CF3)][Sar][hPhe(3-Cl-4-CF3)]P[Ac5c][NMeChg][NMeD]-{3Oxa8azabicyclo(3.2.1)octane}; lactam N-11),0.05 to 0.1 µM,0.0011 µM
CC[C@H](C)[C@@H]1NC(=O)[C@H](C2CCCC2)N(C)C(=O)C[C@@H](C(=O)N2CCCCC2)N(C)C(=O)[C@H](C(C)C)N(C)C(=O)C2(CCCC2)NC(=O)[C@@H]2CCCN2C(=O)[C@H](CCc2ccc(C(F)(F)F)c(Cl)c2)NC(=O)CN(C)C(=O)[C@H](CC2CCCCC2)N(C)C(=O)CN(C)C(=O)CN(C)C1=O [Compound 393] ([NMeGly(cPent)]I[Sar][Sar][NMeCha][Sar][hPhe(3-Cl-4-CF3)]P[Ac5c][NMeV][NMeD]-Piperidide; lactam N-11),0.1 to 0.5 µM,0.0053 µM
CC[C@H](C)[C@@H]1NC(=O)[C@H](CC(C)C)N(C)C(=O)C[C@@H](C(=O)N2CCOC2)N(C)C(=O)[C@H](C2CCCCC2)N(C)C(=O)C2(CCCC2)NC(=O)[C@@H]2CCCN2C(=O)[C@H](CCc2ccc(C(F)(F)F)c(Cl)c2)NC(=O)CN(C)C(=O)[C@H](CC2CCCCC2)N(C)C(=O)CN(C)C(=O)CN(C)C1=O [Compound 1180] ([NMeL]I[Sar][Sar][NMeCha][Sar][hPhe(3-Cl-4-CF3)]P[Ac5c][NMeChg][NMeD]-{Oxazolidin(3-yl)}; lactam N-11),0.05 to 0.1 µM,0.0005 µM
